US8076487B2, “Pyridone derivative and herbicide” (Kumiai Chemical Industry Co., Ltd., priority 2006, dated 2011)

Key:
Type in all cases: in vivo
[1] = system: velvetleaf (Abutilon theophrasti medicus); assay: Test Example 3: herbicidal effect by application to upland field (foliage treatment); conditions: foliage treatment, 1,000 g active ingredient per 1 hectare, 14th day after application, greenhouse
Procedure, shortened: (§1)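 A single foliar application of a water-diluted wettable powder, at 1,000 g of active ingredient per hectare, was made to plants raised for two weeks from seed in field soil. Herbicidal activity was judged visually after a further 14 days in the greenhouse.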

[2] = system: slender amaranth (Amaranthus viridis L.); assay: as above; conditions: foliage treatment, 1,000 g active ingredient per 1 hectare, 14th day after application, greenhouse
Procedure, shortened: as §1

[3] = system: green foxtail (Setaria viridis (L.) P. Beauv.); assay: as above; conditions: foliage treatment, 1,000 g active ingredient per 1 hectare, 14th day after application, greenhouse
Procedure, shortened: as §1

[4] = system: barnyardgrass (Echinochloa crus-galli (L.) P. Beauv. var. crus-galli); assay: as above; conditions: foliage treatment, 1,000 g active ingredient per 1 hectare, 14th day after application, greenhouse
Procedure, shortened: as §1

[5] = system: Japanese bulrush (Scirpus juncoides Roxb.); assay: Test Example 1: herbicidal effect by soil application to paddy field; conditions: paddy field soil application; active ingredient 1,000 g per 1 hectare; wettable powder added dropwise to water surface the day after sowing; examined on the 21st day after application
Procedure, shortened: (§2)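 Under greenhouse conditions, seeds sown on puddled paddy soil in 100 cm2 pots under 3 cm of standing water received the test compound; injury was assessed with a standard scoring scheme three weeks (day 21) after treatment.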

[6] = system: heartshape false pickerelweed (Monochoria vaginalis (Burm.f.) C.Presl); assay: as above; conditions: paddy field soil application; active ingredient 1,000 g per 1 hectare; wettable powder added dropwise to water surface the day after sowing; examined on the 21st day after application
Procedure, shortened: as §2

[7] = system: early watergrass (Echinochloa oryzicola Vasing); assay: as above; conditions: paddy field soil application; active ingredient 1,000 g per 1 hectare; wettable powder added dropwise to water surface the day after sowing; examined on the 21st day after application
Procedure, shortened: as §2

[8] = system: velvetleaf (Abutilon theophrasti medicus); assay: Test Example 2: herbicidal effect by soil application to upland field; conditions: soil surface spray, upland field soil, 1,000 g active ingredient per hectare, 21st day after application
Procedure, shortened: (§3)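 Dose was 1,000 g active ingredient per hectare, applied as a wettable powder diluted in water and sprayed evenly over the soil of sown, covered pots at a 1,000 L/ha equivalent. Effect was judged by a standard scale 21 d later under greenhouse conditions.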

[9] = system: slender amaranth (Amaranthus viridis L.); assay: as above; conditions: soil surface spray, upland field soil, 1,000 g active ingredient per hectare, 21st day after application
Procedure, shortened: as §3

[10] = system: green foxtail (Setaria viridis (L.) P. Beauv.); assay: as above; conditions: soil surface spray, upland field soil, 1,000 g active ingredient per hectare, 21st day after application
Procedure, shortened: as §3

[11] = system: barnyardgrass (Echinochloa crus-galli (L.) P. Beauv. var. crus-galli); assay: as above; conditions: soil surface spray, upland field soil, 1,000 g active ingredient per hectare, 21st day after application
Procedure, shortened: as §3

Compound | herbicidal effect, Velvetleaf [1] | herbicidal effect, Slender Amaranth [2] | herbicidal effect, Green Foxtail [3] | herbicidal effect, Barnyardgrass [4] | herbicidal effect, Scirpus juncoides Roxb. [5] | herbicidal effect, Monochoria vaginalis (Burm. f.) C. Presl [6] | herbicidal effect, Echinochloa oryzicola Vasing [7] | herbicidal effect (index), Velvetleaf [8] | herbicidal effect (index), Slender Amaranth [9] | herbicidal effect (index), Green Foxtail [10] | herbicidal effect (index), Barnyardgrass [11]
O=C(C1=C(O)C2CCC(C2)C1=O)c1ccc(C(F)(F)F)n(CC2CCCO2)c1=O (stereo not drawn) [III-38] | 5 (90% or more of herbicidal effect and crop phytotoxicity) | 5 (90% or more of herbicidal effect and crop phytotoxicity) | 4 (70 to less than 90% of herbicidal effect and crop phytotoxicity) | 5 (90% or more of herbicidal effect and crop phytotoxicity) | 5 (90% or more of herbicidal effect and crop phytotoxicity) | 5 (90% or more of herbicidal effect and crop phytotoxicity) | 5 (90% or more of herbicidal effect and crop phytotoxicity) | 5 (90% or more of herbicidal effect and crop phytotoxicity) | 5 (90% or more of herbicidal effect and crop phytotoxicity) | 3 (50 to less than 70% of herbicidal effect and crop phytotoxicity) | 5 (90% or more of herbicidal effect and crop phytotoxicity)
Cn1ncc(C(=O)c2ccc(C(F)(F)F)n(C)c2=O)c1O [IV-1, 4-[1,2-dihydro-1-methyl-2-oxo-6-(trifluoromethyl)pyridine-3-carbonyl]-5-hydroxy-1-methyl-1H-pyrazole] | 5 (90% or more of herbicidal effect and crop phytotoxicity) | 5 (90% or more of herbicidal effect and crop phytotoxicity) | 4 (70 to less than 90% of herbicidal effect and crop phytotoxicity) | 4 (70 to less than 90% of herbicidal effect and crop phytotoxicity) | 5 (90% or more of herbicidal effect and crop phytotoxicity) | 5 (90% or more of herbicidal effect and crop phytotoxicity) | 5 (90% or more of herbicidal effect and crop phytotoxicity) | 5 (90% or more of herbicidal effect and crop phytotoxicity) | 5 (90% or more of herbicidal effect and crop phytotoxicity) | 4 (70 to less than 90% of herbicidal effect and crop phytotoxicity) | 5 (90% or more of herbicidal effect and crop phytotoxicity)
CCn1c(C(F)(F)F)ccc(C(=O)c2cnn(C)c2O)c1=O [IV-2] | 5 (90% or more of herbicidal effect and crop phytotoxicity) | 5 (90% or more of herbicidal effect and crop phytotoxicity) | 5 (90% or more of herbicidal effect and crop phytotoxicity) | 5 (90% or more of herbicidal effect and crop phytotoxicity) | 5 (90% or more of herbicidal effect and crop phytotoxicity) | 5 (90% or more of herbicidal effect and crop phytotoxicity) | 5 (90% or more of herbicidal effect and crop phytotoxicity) | 5 (90% or more of herbicidal effect and crop phytotoxicity) | 5 (90% or more of herbicidal effect and crop phytotoxicity) | 5 (90% or more of herbicidal effect and crop phytotoxicity) | 5 (90% or more of herbicidal effect and crop phytotoxicity)
